Patent US9527869B2, “Indolizine derivatives as phoshoinositide 3-kinases inhibitors” (CHIESI FARMACEUTICI S.P.A., priority 2014, dated 2016)

Assays:
Type in all cases: biochemical
PI3Kα = biological target: T1, PI3Kα (Homo sapiens, UniProt P42336); assay: In vitro determination of the PI3K enzyme inhibitory activity in the cell free assay (ADP-Glo Kinase Assay), PI3Kα; conditions: ATP 50 μM, read-out: PI3K alpha inhibition
T1 construct: purchased Millipore Ltd (Billerica, Mass.)
Outline: (§1)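 Human recombinant PI3K isoforms with PI/PS lipid substrates (50 μM in 2× buffer, Tris pH 7.5, DTT) were run 60 min at room temperature. Final ATP was 50 μM for α, 100 μM for β, 30 μM for γ and 80 μM for δ. ADP formation was read by ADP-Glo luminescence, and IC50 came from a four-parameter logistic fit.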

PI3Kβ = biological target: T2, PI3Kβ (Homo sapiens, UniProt P42338); assay: In vitro determination of the PI3K enzyme inhibitory activity in the cell free assay (ADP-Glo Kinase Assay), PI3Kβ; conditions: ATP 100 μM, read-out: PI3K beta inhibition
T2 construct: purchased Millipore Ltd (Billerica, Mass.)
Outline: as §1

PI3Kγ = biological target: T3, PI3Kγ (Homo sapiens, UniProt P48736); assay: In vitro determination of the PI3K enzyme inhibitory activity in the cell free assay (ADP-Glo Kinase Assay), PI3Kγ; conditions: ATP 30 μM, read-out: PI3K gamma inhibition
T3 construct: purchased Millipore Ltd (Billerica, Mass.)
Outline: as §1

PI3Kδ = biological target: T4, PI3Kδ (Homo sapiens, UniProt O00329); assay: In vitro determination of the PI3K enzyme inhibitory activity in the cell free assay (ADP-Glo Kinase Assay), PI3Kδ; conditions: ATP 80 μM, read-out: PI3K delta inhibition
T4 construct: purchased Millipore Ltd (Billerica, Mass.)
Outline: as §1

T1 sequence (P42336 whole entry): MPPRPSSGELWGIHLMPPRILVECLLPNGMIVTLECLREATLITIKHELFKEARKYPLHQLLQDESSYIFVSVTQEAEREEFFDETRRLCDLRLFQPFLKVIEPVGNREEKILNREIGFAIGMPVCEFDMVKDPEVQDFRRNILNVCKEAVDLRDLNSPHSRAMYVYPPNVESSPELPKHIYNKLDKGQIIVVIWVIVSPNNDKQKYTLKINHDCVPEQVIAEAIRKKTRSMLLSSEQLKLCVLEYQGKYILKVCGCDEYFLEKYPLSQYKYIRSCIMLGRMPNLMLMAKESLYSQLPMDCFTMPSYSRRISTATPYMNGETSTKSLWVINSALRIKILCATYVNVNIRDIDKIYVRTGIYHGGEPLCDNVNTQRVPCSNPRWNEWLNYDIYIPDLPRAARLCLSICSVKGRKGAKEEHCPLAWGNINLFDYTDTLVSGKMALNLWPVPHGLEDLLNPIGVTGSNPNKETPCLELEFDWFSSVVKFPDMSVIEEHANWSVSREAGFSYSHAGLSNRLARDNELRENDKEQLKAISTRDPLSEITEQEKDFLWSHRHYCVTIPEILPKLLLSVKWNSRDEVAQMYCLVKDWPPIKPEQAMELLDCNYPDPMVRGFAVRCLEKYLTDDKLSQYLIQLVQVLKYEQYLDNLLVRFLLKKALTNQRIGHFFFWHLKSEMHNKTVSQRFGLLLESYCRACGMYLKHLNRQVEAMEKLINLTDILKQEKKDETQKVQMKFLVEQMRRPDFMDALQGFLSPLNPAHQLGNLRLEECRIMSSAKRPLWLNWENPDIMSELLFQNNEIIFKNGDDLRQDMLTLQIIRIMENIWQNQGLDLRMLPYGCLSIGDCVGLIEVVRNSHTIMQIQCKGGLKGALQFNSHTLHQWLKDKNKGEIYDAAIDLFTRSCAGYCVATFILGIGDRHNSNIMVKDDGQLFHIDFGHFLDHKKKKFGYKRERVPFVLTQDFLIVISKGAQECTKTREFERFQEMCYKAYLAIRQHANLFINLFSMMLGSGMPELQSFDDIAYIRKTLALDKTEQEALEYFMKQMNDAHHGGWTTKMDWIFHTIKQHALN
T1 sequence (P27986 whole entry partner): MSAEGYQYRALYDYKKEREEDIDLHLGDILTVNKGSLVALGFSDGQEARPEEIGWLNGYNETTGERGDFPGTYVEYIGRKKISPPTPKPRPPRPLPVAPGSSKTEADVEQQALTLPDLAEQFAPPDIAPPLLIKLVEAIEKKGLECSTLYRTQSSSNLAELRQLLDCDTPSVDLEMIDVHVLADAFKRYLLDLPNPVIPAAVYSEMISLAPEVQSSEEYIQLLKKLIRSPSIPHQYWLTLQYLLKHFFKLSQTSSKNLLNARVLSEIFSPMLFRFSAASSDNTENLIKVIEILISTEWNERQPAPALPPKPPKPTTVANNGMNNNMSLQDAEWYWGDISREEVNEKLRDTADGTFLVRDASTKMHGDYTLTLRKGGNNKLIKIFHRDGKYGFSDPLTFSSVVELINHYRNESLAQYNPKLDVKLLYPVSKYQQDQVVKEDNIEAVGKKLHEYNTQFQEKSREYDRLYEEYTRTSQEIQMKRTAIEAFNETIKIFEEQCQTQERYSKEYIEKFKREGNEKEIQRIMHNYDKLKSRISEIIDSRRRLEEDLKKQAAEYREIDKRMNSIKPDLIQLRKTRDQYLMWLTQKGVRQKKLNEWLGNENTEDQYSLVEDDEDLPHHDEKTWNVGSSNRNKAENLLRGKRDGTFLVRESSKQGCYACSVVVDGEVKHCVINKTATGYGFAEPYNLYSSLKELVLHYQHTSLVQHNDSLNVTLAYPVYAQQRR
T2 sequence (P42338 whole entry): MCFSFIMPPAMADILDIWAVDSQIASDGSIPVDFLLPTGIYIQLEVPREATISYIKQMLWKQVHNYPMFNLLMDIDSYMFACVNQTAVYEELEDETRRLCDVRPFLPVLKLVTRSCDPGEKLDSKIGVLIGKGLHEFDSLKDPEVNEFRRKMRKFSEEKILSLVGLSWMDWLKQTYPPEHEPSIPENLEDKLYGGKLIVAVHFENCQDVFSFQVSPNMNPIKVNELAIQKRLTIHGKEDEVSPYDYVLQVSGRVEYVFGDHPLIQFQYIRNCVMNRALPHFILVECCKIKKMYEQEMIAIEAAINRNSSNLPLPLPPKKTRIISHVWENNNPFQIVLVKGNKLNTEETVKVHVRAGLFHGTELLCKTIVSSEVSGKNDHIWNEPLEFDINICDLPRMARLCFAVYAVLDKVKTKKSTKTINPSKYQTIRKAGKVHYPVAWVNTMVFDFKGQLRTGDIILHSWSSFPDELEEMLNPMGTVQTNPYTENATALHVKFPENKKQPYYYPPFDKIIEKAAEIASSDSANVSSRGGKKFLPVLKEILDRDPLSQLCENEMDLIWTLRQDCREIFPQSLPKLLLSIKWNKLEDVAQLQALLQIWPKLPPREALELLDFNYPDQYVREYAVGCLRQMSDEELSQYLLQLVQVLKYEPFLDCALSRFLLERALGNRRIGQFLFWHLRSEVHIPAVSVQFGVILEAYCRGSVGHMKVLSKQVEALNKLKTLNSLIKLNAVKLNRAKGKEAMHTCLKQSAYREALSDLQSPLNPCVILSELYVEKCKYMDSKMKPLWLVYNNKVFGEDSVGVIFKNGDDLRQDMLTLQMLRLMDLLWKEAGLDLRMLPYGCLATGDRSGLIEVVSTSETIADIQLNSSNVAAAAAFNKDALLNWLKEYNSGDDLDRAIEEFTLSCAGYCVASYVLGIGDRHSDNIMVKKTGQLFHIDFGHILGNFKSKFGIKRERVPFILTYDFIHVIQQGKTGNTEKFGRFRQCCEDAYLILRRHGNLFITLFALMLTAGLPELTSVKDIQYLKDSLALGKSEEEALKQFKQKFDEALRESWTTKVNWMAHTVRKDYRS
T2 sequence (P27986 whole entry partner): as the sequence (P27986 whole entry partner) above
T4 sequence (O00329 whole entry): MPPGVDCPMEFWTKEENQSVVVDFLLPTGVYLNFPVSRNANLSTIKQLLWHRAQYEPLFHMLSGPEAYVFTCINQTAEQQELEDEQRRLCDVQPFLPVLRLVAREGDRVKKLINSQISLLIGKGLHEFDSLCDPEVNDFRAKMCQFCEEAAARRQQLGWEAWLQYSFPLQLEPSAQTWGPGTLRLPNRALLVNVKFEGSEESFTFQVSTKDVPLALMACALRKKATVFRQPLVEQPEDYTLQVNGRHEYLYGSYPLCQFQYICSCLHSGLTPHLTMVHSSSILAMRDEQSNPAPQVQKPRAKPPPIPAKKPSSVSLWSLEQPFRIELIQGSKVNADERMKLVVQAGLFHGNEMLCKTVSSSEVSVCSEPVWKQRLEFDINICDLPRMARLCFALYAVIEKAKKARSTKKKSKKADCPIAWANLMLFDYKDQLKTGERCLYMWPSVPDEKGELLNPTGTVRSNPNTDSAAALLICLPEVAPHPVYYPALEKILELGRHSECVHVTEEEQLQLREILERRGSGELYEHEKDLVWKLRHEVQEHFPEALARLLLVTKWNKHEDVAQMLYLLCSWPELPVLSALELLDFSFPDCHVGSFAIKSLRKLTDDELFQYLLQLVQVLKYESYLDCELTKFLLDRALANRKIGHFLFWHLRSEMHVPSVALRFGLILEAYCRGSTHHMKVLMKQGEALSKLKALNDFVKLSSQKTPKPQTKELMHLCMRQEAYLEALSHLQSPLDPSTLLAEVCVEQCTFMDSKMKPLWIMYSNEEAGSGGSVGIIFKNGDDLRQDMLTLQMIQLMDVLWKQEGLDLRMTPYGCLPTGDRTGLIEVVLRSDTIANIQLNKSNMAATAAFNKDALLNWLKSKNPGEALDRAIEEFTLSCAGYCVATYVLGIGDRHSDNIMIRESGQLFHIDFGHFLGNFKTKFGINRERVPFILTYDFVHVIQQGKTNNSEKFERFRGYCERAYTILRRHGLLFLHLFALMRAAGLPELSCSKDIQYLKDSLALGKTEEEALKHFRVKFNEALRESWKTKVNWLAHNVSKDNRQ
T4 sequence (P27986 whole entry partner): as the sequence (P27986 whole entry partner) above
T3 sequence (P48736 whole entry): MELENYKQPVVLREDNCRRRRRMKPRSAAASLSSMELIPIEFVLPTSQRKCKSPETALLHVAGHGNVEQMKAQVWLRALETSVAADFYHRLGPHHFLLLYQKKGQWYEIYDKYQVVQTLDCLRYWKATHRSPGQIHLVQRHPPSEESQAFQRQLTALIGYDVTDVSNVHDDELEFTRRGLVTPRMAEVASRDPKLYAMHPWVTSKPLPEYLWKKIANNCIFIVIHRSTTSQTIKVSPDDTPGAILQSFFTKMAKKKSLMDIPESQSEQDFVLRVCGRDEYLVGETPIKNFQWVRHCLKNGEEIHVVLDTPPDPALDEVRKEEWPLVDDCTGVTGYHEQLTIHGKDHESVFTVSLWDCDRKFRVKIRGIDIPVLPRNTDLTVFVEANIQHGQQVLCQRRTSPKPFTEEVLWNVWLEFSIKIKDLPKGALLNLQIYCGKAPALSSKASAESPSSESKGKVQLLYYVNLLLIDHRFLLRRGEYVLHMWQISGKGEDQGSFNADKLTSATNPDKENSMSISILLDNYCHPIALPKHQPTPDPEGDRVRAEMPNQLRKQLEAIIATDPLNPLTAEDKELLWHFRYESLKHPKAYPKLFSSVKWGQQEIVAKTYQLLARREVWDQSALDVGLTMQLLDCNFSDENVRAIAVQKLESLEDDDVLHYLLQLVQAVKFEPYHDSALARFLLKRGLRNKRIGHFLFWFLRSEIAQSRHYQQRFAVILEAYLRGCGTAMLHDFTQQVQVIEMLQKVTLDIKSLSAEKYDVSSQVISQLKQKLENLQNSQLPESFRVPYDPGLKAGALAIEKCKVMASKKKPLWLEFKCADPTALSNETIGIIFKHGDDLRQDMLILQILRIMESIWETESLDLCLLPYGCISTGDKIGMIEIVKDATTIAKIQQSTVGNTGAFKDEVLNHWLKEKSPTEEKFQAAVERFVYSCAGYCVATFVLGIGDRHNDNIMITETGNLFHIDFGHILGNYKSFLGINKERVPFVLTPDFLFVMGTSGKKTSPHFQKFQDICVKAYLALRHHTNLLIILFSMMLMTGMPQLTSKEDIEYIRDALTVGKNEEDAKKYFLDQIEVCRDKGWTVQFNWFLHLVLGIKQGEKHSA

| SMILES | IC50 (PI3Kα) [nM] | IC50 (PI3Kβ) [nM] | IC50 (PI3Kγ) [nM] | IC50 (PI3Kδ) [nM] |
| --- | --- | --- | --- | --- |
| Nc1ncn(Cc2cc3ccccn3c2-c2cccc(F)c2)c2ncnc1-2 [Example 5, 3-{[3-(3-fluorophenyl)indolizin-2-yl]methyl}-3H-purin-6-amine] | > 1000 | > 1000 | > 1000 | > 1000 |
| Fc1cccc(-c2c(CNc3ncnc4[nH]cnc34)cc3ccccn23)c1 [Example 15, N-{[3-(3-fluorophenyl)indolizin-2-yl]methyl}-9H-purin-6-amine] | > 1000 | > 1000 | > 1000 | > 1000 |
| CC(c1cc2ccccn2c1-c1cccc(C2CCCN2C)c1)n1nc(-c2cc(O)cc(F)c2)c2c(N)ncnc21 (mixture of isomers) [Example 118, 3-[4-amino-1-(1-{3-[3-(1-methylpyrrolidin-2-yl)phenyl]indolizin-2-yl}ethyl)-1H-pyrazolo[3,4-d]pyrimidin-3-yl]-5-fluorophenol] | > 1000 | 10 to 1000 | > 1000 | 10 to 1000 |
| Cc1cccc2cc(C(C)Nc3ncnc(N)c3C#N)c(-c3ccccn3)n12 (centres unmarked) [Example 40, 4-amino-6-({1-[5-methyl-3-(pyridin-2-yl)indolizin-2-yl]ethyl}amino)pyrimidine-5-carbonitrile] | > 1000 | > 1000 | > 1000 | < 10 |
| CC(c1cc2ccccn2c1-c1cccc(CN2CCOCC2)n1)n1nc(-c2cc(O)cc(F)c2)c2c(N)ncnc21 (centres unmarked) [Example 110, 3-[4-amino-1-(1-{3-[6-(morpholin-4-ylmethyl)pyridin-2-yl]indolizin-2-yl}ethyl)-1H-pyrazolo[3,4-d]-pyrimidin-3-yl]-5-fluorophenol] | > 1000 | 10 to 1000 | > 1000 | < 10 |
| Nc1ncnc2c1c(-c1cc(O)cc(F)c1)nn2Cc1cc2ccccn2c1-c1cccnc1 [Example 98, 3-(4-amino-1-{[3-(pyridin-3-yl)indolizin-2-yl]methyl}-1H-pyrazolo[3,4-d]pyrimidin-3-yl)-5-fluorophenol] | 10 to 1000 | 10 to 1000 | 10 to 1000 | 10 to 1000 |
| Nc1ncnc2c1ncn2Cc1cc2ccccn2c1-c1cccc(F)c1 [Example 4, 9-{[3-(3-fluorophenyl)indolizin-2-yl]methyl}-9H-purin-6-amine] | > 1000 | > 1000 | > 1000 | 10 to 1000 |
| CC(c1cc2ccccn2c1-c1ccc(OCCN2CCN(C)CC2)nn1)n1nc(-c2cc(O)cc(F)c2)c2c(N)ncnc21 (centres unmarked) [Example 137, 3-{4-amino-1-[1-(3-{6-[2-(4-methylpiperazin-1-yl)ethoxy]pyridazin-3-yl}indolizin-2-yl)-ethyl]-1H-pyrazolo[3,4-d]pyrimidin-3-yl}-5-fluorophenol] | > 1000 | 10 to 1000 | > 1000 | < 10 |
| CC(c1cc2ccccn2c1-c1ccccc1)n1nc(-c2cc(O)cc(F)c2)c2c(N)ncnc21 (centres unmarked) [Example 85, 3-{4-amino-1-[1-(3-phenylindolizin-2-yl)ethyl]-1H-pyrazolo[3,4-d]pyrimidin-3-yl}-5-fluorophenol] | > 1000 | 10 to 1000 | > 1000 | 10 to 1000 |
| CC(c1cc2ccccn2c1-c1cc(CN(C)C)ccn1)n1nc(-c2cc(O)cc(F)c2)c2c(N)ncnc21 (centres unmarked) [Example 112, 3-{4-amino-1-[1-(3-{4-[(dimethylamino)-methyl]pyridin-2-yl}indolizin-2-yl)-ethyl]-1H-pyrazolo[3,4-d]pyrimidin-3-yl}-5-fluorophenol] | 10 to 1000 | 10 to 1000 | 10 to 1000 | < 10 |
| CC(c1cc2ccccn2c1C#CCN(C)C)n1nc(-c2cc(O)cc(F)c2)c2c(N)ncnc21 (centres unmarked) [Example 131, 3-[4-amino-1-(1-{3-[3-(dimethylamino)prop-1-yn-1-yl]indolizin-2-yl}ethyl)-1H-pyrazolo[3,4-d]-pyrimidin-3-yl]-5-fluorophenol] | 10 to 1000 | 10 to 1000 | 10 to 1000 | 10 to 1000 |
